Entries after “also recorded” stand apart in the source; their conditions may differ.
What was measured:
Format in all cases: in vivo
[1] = test system: rat middle cerebral artery distal obstruction cerebral ischemia model; test: dMCAO cerebral ischemia: neurologic function score
Method: Using rat middle cerebral artery distal obstruction cerebral ischemia model. (1) according to rat weight, 10% chloral hydrate (3 ml/kg) was peritoneally injected to anaesthetize. […]
3.3.1 the neurologic function score of the animal in conscious were scored for the rat behaviour according to the Neurological Defects 4 Score in 5 Grade Method by Longa E Z et al ^[4] : 0 point: no significant neurologic function impairment; 1 point: unable to stretch forelimbs on opposite sides; 2 point: rolling to the opposite side when walking; 3 point: duping to the opposite side when walking; 4 point: unable to spontaneously walk, and loss of consciousness.

[2] = test system: myeloperoxidase (MPO) activity in mouse renal cortex; test: kidney ischemia reperfusion: MPO analysis; conditions: vs IR group, P<0.05; HEA 5 and 7.5 mg/kg; DPCPX 1 mg/kg; DPCPX 1 mg/kg+HEA 5 mg/kg
Method: Male C57BL/6 mice 20-25 g, after one week of adaptive feeding to the animals, were randomly divided into eight groups: sham-operation group, IR group, HEA 5 mg/kg group, HEA 7 mg/kg group, HEA 10 mg/kg group, DPCPX (1 mg/kg) group, DPCPX (1 mg/kg)+HEA (5 mg/kg) group and DPCPX (1 mg/kg)+HEA (7.5 mg/kg) group. The mouse was weighed before operation, then peritoneally injected with pentobarbital sodium 50 mg/kg to anaesthetize the mouse, abdomen was opened by ventromedial incision, blunt dissection and the kidney pedicle was sufficiently exposed, renal ischemia was induced by clapping two side kidney pedicle with non-invasive bulldog clamp, the color of kidney change from bright red to purple black immediately, determination method of success of the experiment model can refer to the methods in literature 7 and 8. At time of 30 min of ischemia the bulldog clamp was loosened, the perfuse was restored, the color of kidney changed gradually from dark red to bright red, showing re perfusion was successful. The wound was stitched. The animals were freely fed water and food. In the sham-operation group, the mice only received operation of abdomen open, kidney pedicle and abdomen suture. […] 9.2.6 Real time quantitative PCR analysis of gene expression of ICAM-1, TNF-α and IL-1β; the sequence of primer used in RT-PCR reaction system is as follow: […]

[3] = test system: rat middle cerebral artery distal obstruction cerebral ischemia model; test: dMCAO cerebral ischemia: brain histomorphological staining HE
Method: Using rat middle cerebral artery distal obstruction cerebral ischemia model. (1) according to rat weight, 10% chloral hydrate (3 ml/kg) was peritoneally injected to anaesthetize. (2) the rat lie on right side and fixed, 1 cm skin incision was cut at connection of inner canthus with external canal, fascia was isolated, muscle tissue, the skull was exposed; (3) a small amount of normal saline was sucked with cotton ball to wipe the skull to ac clear view; (4) fascia was isolated under operating microscope, and the skull was exposed, a hole with diameter of 2 mm circular was drilled at a sute 1/3 of spine; (5) the excess bone debris was washed by a small amount of normal saline, the meninge was push aside, and the middle cerebral artery MCA was exposed; (6) the rat lie in supine position and fixed, an incision was made along middle of throat, and arteria carotis communis CCA on both sides were isolate, pass through with a surgical suture, not ligated temporarily; (7) the MCA was found under operating microscope, burned by a monopolar coagulator, then wash and colled with normal saline; (8) immediately after coagulation, the arteria carotis communis on both sides was ligated, and blocked for 60 min; (9) the wound on head was stitched, after 1 hour the arteria carotis communis on both sides was […], and the skin was stitched, thus the modeling was complete. […]

[4] = test system: pentylenetetrazole induced convulsion; test: pentylenetetrazole induced convulsion in mouse
Method: Male ICR mouse, 18˜22 g; purchased from Animal Experiment Center of Wenzhou Medical University. Before experiment, animals were adapted to environment for at least 5 days. Kept at 25 °C, food and water were freely fed. Based on the weight, the healthy male ICR mice were randomly divided into control group (1% DMSO, ip), model group, CCPA group (0.1 mg·kg^−1, ip), HEA group (15 mg/kg, 40 mg/kg, 60 mg/kg), DPCPX group (2 mg·kg^−1, ip), ZM241385 group (1 mg·kg^−1, 5 mg·kg^−1, ip), DPCPX+HEA (2 mg·kg^−1+40 mg/kg, ip) group and ZM241385+HEA (1 mg·kg^−1+40 mg/kg, 5 mg·kg^−1+40 mg/kg ip) group.
The survival time and mortality after convulsion were respectively recorded for each group.

In the case of `OCCNc1ncnc2c1ncn2[C@@H]1O[C@H](CO)[C@@H](O)[C@H]1O` [HEA, N(6)-(2-hydroxyethyl)-adenosine], the neurologic function score ([1]; dMCAO rat, HEA 5, 7.5, 12 mg/kg ip (7.5 mg/kg) 30 min before operation, vs model group) is reported as “significantly improve neurological symptom of dMCAO rat; also recorded: significantly improve neurological function of the injured brain”, the “myeloperoxidase (MPO) activity in renal cortex” value [2] is reported as “significantly reduced” and the “brain histomorphology (HE staining)” value ([3]; dMCAO rat, HEA 7.5 mg/kg ip, vs model group) is reported as “reduce the cerebral cortex tissue structure loosening caused by ischemia; also recorded: improve cell swelling degree and nuclear aberration, and increases cell number”. The “survival time after convulsion” value ([4]; HEA 40 mg/kg ip, pentylenetetrazole 100 mg/kg ip, vs control group) was “significantly extend the survival time” and the “mortality of mouse convulsion” value ([4]; HEA 40 mg/kg, pentylenetetrazole 100 mg/kg ip) was “very significantly reduce the mortality”.

With `CCCn1c(=O)c2[nH]c(C3CCCC3)nc2n(CCC)c1=O` [DPCPX, reference compound] the “antagonism of the protective effects of HEA in dMCAO” value ([1]; HEA 7.5 mg/kg + DPCPX 1 mg/kg ip, all dMCAO readouts) was “may be antagonized”, the “myeloperoxidase (MPO) activity in renal cortex” value [2] was “significantly increase MPO activity” and the “effect of DPCPX on brain protective effect of HEA (HE staining)” value ([3]; DPCPX 1 mg/kg ip + HEA 7.5 mg/kg ip) was “blocking the brain protective effect of the HAE”. The “effect of antagonist on the anti-convulsion action of the HEA” value ([4]; antagonist ip 10 min before HEA 40 mg/kg, DPCPX 2 mg/kg, ZM241385 1 and 5 mg/kg) was “significantly inhibit the anti-convulsion effect of the HEA; also recorded: significantly reduce the anti-convulsion effect of the HEA”.

— patent US10479814B2, “Adenosine receptor activation reagent and the uses of thereof” (Zhejiang Subtropical Crops Research Institute, priority 2014, dated 2019)
